Experiment [1] has as its target interaction between PD-1 and PD-L1 (Homo sapiens, UniProt Q9NZQ7). The experiment is described as follows: PD-1/PD-L1 protein-protein interaction assay (ALPHA). Format: binding. Particulars: 2 nM His-tagged human PD-L1, 0.6 nM PD-1-Fc, AlphaScreen.
Procedure: PD-1′PD-L1 Protein-Protein Interaction Assay
Amplified Luminescent Proximity Homogeneous Assay (ALPHA) platform was used to evaluate the ability of the compounds to block the interaction between PD-1 and PD-L1. The assays were performed in half volume white 96-well plate in a final volume of 40 μl. Compounds at various concentrations were preincubated with 2 nM His tagged recombinant human PD-L1 protein and 0.6 nM recombinant PD-1 protein with Fc-tag (both reagents were purchased from AcroBiosystems) for 40 minutes. After the preincubation, 20 μg/mL of Alphascreen Ni chelate donor beads (PerkinElmer, USA) and Protein A acceptor beads (PerkinElmer, USA) were added into the well and incubated under reduced light at 25° C. for 120 minutes. The signal was measured with the EnSight Multimode Plate Reader. IC50 values were calculated from the four-parameter logistic curve fit.
The target of a further experiment is T1, PD-1/PD-L1 interaction (Homo sapiens, UniProt Q9NZQ7).
T1 construct: expressed in transfected cells
The experiment is described as follows: PD-1/PD-L1 blockage cell-based bioassay (Jurkat NFAT luciferase / CHO-PDL1 co-culture). Particulars: Jurkat NFAT cells co-cultured with CHO-PDL1 cells, 6 h, luminescence.

The results in this text go back to patent US20240336601A1 (Chulalongkorn University, priority 2020, published 2024).

Molecules are shown by their SMILES. pIC50: −log10 of the molar value.

T1 sequence (Q9NZQ7 19-290): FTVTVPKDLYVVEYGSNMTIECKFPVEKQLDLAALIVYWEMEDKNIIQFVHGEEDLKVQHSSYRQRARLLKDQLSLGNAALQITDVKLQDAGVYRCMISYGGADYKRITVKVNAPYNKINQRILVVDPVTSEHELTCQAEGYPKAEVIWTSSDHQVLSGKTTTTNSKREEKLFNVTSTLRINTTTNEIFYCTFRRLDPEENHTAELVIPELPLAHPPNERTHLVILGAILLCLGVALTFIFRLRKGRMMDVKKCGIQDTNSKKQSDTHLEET
Chain of interaction between PD-1 and PD-L1 (Q9NZQ7 19-238 limits assumed): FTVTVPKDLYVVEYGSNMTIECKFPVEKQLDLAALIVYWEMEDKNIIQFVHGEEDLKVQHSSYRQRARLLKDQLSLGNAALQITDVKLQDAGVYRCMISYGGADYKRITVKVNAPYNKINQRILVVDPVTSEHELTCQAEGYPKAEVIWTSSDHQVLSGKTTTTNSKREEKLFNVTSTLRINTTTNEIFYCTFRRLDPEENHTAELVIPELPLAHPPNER

Regarding `COc1cc(-n2ncc3c(-c4cccc(-c5ccc(CNC[C@@H](C)O)c(OC)n5)c4Cl)cccc32)cc(OC)c1CNC[C@@H](C)O` [Example 127, (R)-1-(((6-(2-chloro-3-(1-(4-((((R)-2-hydroxypropyl)amino)methyl)-3,5-dimethoxyphenyl)-1H-indazol-4-yl)phenyl)-2-methoxypyridin-3-yl)methyl)amino)propan-2-ol], the figures for the pIC50 (in experiment [1]; at PD-1/PD-L1 interaction) were over 9.00 and over 6.70, respectively.
The like results for `COc1cc(-n2ncc3c(-c4cccc(-c5ccc(CNCCO)c(OC)n5)c4Cl)cccc32)cc(OC)c1CNCCO` [Example 129, 2-(((6-(2-chloro-3-(1-(4-(((2-hydroxyethyl)amino)methyl)-3,5-dimethoxyphenyl)-1H-indazol-4-yl)phenyl)-2-methoxypyridin-3-yl)methyl)amino)ethanol] were, in that order, over 9.00 and over 6.70.
For `COC(=O)C1CC[C@H](NCc2ccc(-c3cccc(-c4cccc5c4ccn5-c4cc(OC)c(CNC[C@@H]5CCC(=O)N5)c(OC)c4)c3Cl)nc2OC)C1` (some centres unmarked) [Example 50], the pIC50 in experiment [1] was 7.00 to 8.00; at PD-1/PD-L1 interaction, under 5.70.
With `COc1cc(-n2ncc3c(-c4cccc(-c5ccc(CN[C@H]6C[C@@H](O)C6)c(OC)n5)c4Cl)cccc32)cc(OC)c1CNCCO` [Example 125, cis-3-(((6-(2-chloro-3-(1-(4-(((2-hydroxyethyl)amino)methyl)-3,5-dimethoxyphenyl)-1H-indazol-4-yl)phenyl)-2-methoxypyridin-3-yl)methyl)amino)cyclobutanol], the negative logarithm of the IC50 (pIC50) in experiment [1] is over 9.00; at PD-1/PD-L1 interaction, over 6.70.
Take `COc1cc(-n2ccc3c(-c4cccc(-c5ccc(CNC[C@@H]6CCC(=O)N6)c(OC)n5)c4Cl)cccc32)cc(OC)c1CN1CC[C@H](O)C1` [Example 83, (S)-5-((((6-(2-chloro-3-(1-(4-(((S)-3-hydroxypyrrolidin-1-yl)methyl)-3,5-dimethoxyphenyl)-1H-indol-4-yl)phenyl)-2-methoxypyridin-3-yl)methyl)amino)methyl)pyrrolidin-2-one]: the negative-log IC50 (pIC50) in experiment [1] was 8.00 to 9.00; at PD-1/PD-L1 interaction, 5.70 to 6.70.
On to `COc1cc(-n2ncc3c(-c4cccc(-c5ccc(CN6CC(C(C)(C)O)C6)c(OC)n5)c4C)cccc32)cc(OC)c1CN1CC(C(C)(C)O)C1` [Example 136, 2-(1-((6-(3-(1-(4-((3-(2-hydroxypropan-2-yl)azetidin-1-yl)methyl)-3,5-dimethoxyphenyl)-1H-indazol-4-yl)-2-methylphenyl)-2-methoxypyridin-3-yl)methyl)azetidin-3-yl)propan-2-ol], for which the pIC50 in experiment [1] is over 9.00; against PD-1/PD-L1 interaction, 5.70 to 6.70.
For `COc1cc(-n2ncc3c(-c4cccc(-c5ccc(CN[C@H]6C[C@@H](O)C6)c(OC)n5)c4Cl)cccc32)ncc1CN1CC(C)(O)C1` [Example 124, 1-((6-(4-(2-chloro-(5-(((cis-3-hydroxycyclobutyl)amino)methyl)-6-methoxypyridin-2-yl)phenyl)-1H-indazol-1-yl)-4-methoxypyridin-3-yl)methyl)-3-methylazetidin-3-ol], in that order: over 9.00 and 5.70 to 6.70.
As for `COc1cc(-n2ncc3c(-c4cccc(-c5ccc(CNC[C@H]6C[C@@H](O)C6)c(OC)n5)c4Cl)cccc32)cc(OC)c1CNC[C@@H]1CCC(=O)N1` [Example 55], the pIC50 in experiment [1] was 8.00 to 9.00; against PD-1/PD-L1 interaction, 5.70 to 6.70.
For `COc1cc(-n2ncc3c(-c4cccc(-c5ccc(CN[C@H]6C[C@@H](O)C6)c(OC)n5)c4Cl)cccc32)cc(OC)c1CNCC1(C(N)=O)CC1` [Example 131, 1-(((4-(4-(2-chloro-3-(5-(((cis-3-hydroxycyclobutyl)amino)methyl)-6-methoxypyridin-2-yl)phenyl)-1H-indazol-1-yl)-2,6-dimethoxybenzyl)amino)methyl)cyclopropane-1-carboxamide], in that order: 8.00 to 9.00 and 5.70 to 6.70.
The like results for `COc1cc(-n2ncc3c(-c4cccc(-c5ccc(CN[C@H]6C[C@@H](O)C6)c(OC)n5)c4Cl)cccc32)cc(OC)c1CN[C@@H](C)CO` [Example 119, cis-3-(((6-(2-chloro-3-(1-(4-((((S)-1-hydroxypropan-2-yl)amino)methyl)-3,5-dimethoxyphenyl)-1H-indazol-4-yl)phenyl)-2-methoxypyridin-3-yl)methyl)amino)cyclobutanol] were, in that order, over 9.00 and 5.70 to 6.70.
The like results for `COc1cc(-n2ncc3c(-c4cccc(-c5ccc(CN6CC7(CNC(=O)C7)C6)c(OC)n5)c4Cl)cccc32)cc(OC)c1CN1CC(C(=O)O)C1` [Example 150, 1-(4-(4-(2-chloro-3-(6-methoxy-5-((7-oxo-2,6-diazaspiro[3.4]octan-2-yl)methyl)pyridin-2-yl)phenyl)-1H-indazol-1-yl)-2,6-dimethoxybenzyl)azetidine-3-carboxylic acid] were, in that order, over 9.00 and over 6.70.
With `COC(=O)[C@@H](CO)NCc1c(OC)cc(-n2ncc3c(-c4cccc(-c5ccc(CNC[C@@H]6CCC(=O)N6)c(OC)n5)c4Cl)cccc32)cc1OC` [Example 134, methyl (4-(4-(2-chloro-3-(6-methoxy-5-(((((S)-5-oxopyrrolidin-2-yl)methyl)amino)methyl)pyridin-2-yl)phenyl)-1H-indazol-1-yl)-2,6-dimethoxybenzyl)-D-serinate], the pIC50 in experiment [1] is over 9.00; against PD-1/PD-L1 interaction, over 6.70.
As to `COc1cc(-n2ncc3c(-c4cccc(-c5ccc(CNC[C@H]6C[C@@H](O)C6)c(OC)n5)c4Cl)cccc32)cc(OC)c1CN1CC(C)(C(=O)O)C1` [Example 47], the negative logarithm of the IC50 (pIC50) in experiment [1] was over 9.00; at PD-1/PD-L1 interaction, over 6.70.
Consider `COc1cc(-n2ccc3c(-c4cccc(NC(=O)c5nc6c(s5)CN(C)CC6)c4C)cccc32)cc(OC)c1CNC[C@@H]1CCC(=O)N1` [Example 67, (S)—N-(3-(1-(3,5-dimethoxy-4-((((5-oxopyrrolidin-2-yl)methyl)amino)methyl)phenyl)-1H-indol-4-yl)-2-methylphenyl)-5-methyl-4,5,6,7-tetrahydrothiazolo[5,4-c]pyridine-2-carboxamide], for which the pIC50 was 8.00 to 9.00 in experiment [1] and under 5.70 at PD-1/PD-L1 interaction.
The like results for `COc1cc(-c2cccc(-c3cccc4c3cnn4-c3cc(OC)c(CN4CC[C@@H](O)C4)c(OC)c3)c2Cl)cc(F)c1CN(C)C12CCC(C(=O)O)(CC1)CC2` [Example 164, (R)-4-(((2′-chloro-3-fluoro-β′-(1-(4-((3-hydroxypyrrolidin-1-yl)methyl)-3,5-dimethoxyphenyl)-1H-indazol-4-yl)-5-methoxy-[1,1′-biphenyl]-4-yl)methyl)(methyl)amino)bicyclo[2.2.2]octane-1-carboxylic acid] were, in that order, over 9.00 and over 6.70.
For `COc1cc(-c2cn(C)c3c(-c4cccc(-c5ccc(CNC[C@@H]6CCC(=O)N6)c(OC)n5)c4Cl)cccc23)cc(OC)c1CNC[C@@H]1CCC(=O)N1` [Example 93, (S)-5-((((6-(2-chloro-3-(3-(3,5-dimethoxy-4-(((((S)-5-oxopyrrolidin-2-yl)methyl)amino)methyl)phenyl)-1-methyl-1H-indol-7-yl)phenyl)-2-methoxypyridin-3-yl)methyl)amino)methyl)pyrrolidin-2-one], the values for the pIC50 (in experiment [1]; against PD-1/PD-L1 interaction) were 8.00 to 9.00 and under 5.70, respectively.
For `COc1cc(-n2ncc3c(-c4cccc(-c5ccc(CNC[C@H]6C[C@@H](O)C6)c(OC)n5)c4Cl)cccc32)cc(OC)c1CN1CC(C)(O)C1` [Example 68, 1-(4-(4-(2-chloro-3-(5-((((cis-3-hydroxycyclobutyl)methyl)amino)methyl)-6-methoxypyridin-2-yl)phenyl)-1H-indazol-1-yl)-2,6-dimethoxybenzyl)-3-methylazetidin-3-ol], in that order: over 9.00 and over 6.70.
Regarding `COc1cc(-n2ncc3c(-c4cccc(-c5ccc(CNC[C@@H]6CCC(=O)N6)c(OC)n5)c4Cl)cccc32)cc(OC)c1CN[C@H](CO)C(=O)O` [Example 123, (4-(4-(2-chloro-3-(6-methoxy-5-(((((S)-5-oxopyrrolidin-2-yl)methyl)amino)methyl)pyridin-2-yl)phenyl)-1H-indazol-1-yl)-2,6-dimethoxybenzyl)-D-serine], the pIC50 was over 9.00 in experiment [1] and over 6.70 against PD-1/PD-L1 interaction.
Regarding `COc1cc(-n2ncc3c(-c4cccc(-c5ccc(CN[C@H]6C[C@@H](O)C6)c(OC)n5)c4Cl)cccc32)cc(OC)c1CNC[C@@H](C)O` [Example 113, cis-3-(((6-(2-chloro-3-(1-(4-((((R)-2-hydroxypropyl)amino)methyl)-3,5-dimethoxyphenyl)-1H-indazol-4-yl)phenyl)-2-methoxypyridin-3-yl)methyl)amino)cyclobutan-1-ol], the pIC50 in experiment [1] is over 9.00; against PD-1/PD-L1 interaction, over 6.70.
Turning to `COc1cc(-n2ncc3c(-c4cccc(-c5ccc(CN6CC7(CNC(=O)C7)C6)c(OC)n5)c4Cl)cccc32)cc(OC)c1CNCCO` [Example 128, 2-((6-(2-chloro-3-(1-(4-(((2-hydroxyethyl)amino)methyl)-3,5-dimethoxyphenyl)-1H-indazol-4-yl)phenyl)-2-methoxypyridin-3-yl)methyl)-2,6-diazaspiro[3.4]octan-7-one], the pIC50 in experiment [1] is over 9.00; at PD-1/PD-L1 interaction, over 6.70.
On to `COc1cc(N2CCc3c(-c4cccc(-c5nc6c(s5)CNCC6)c4C)cccc32)cc(OC)c1CNC[C@@H]1CCC(=O)N1` [Example 85, (S)-5-(((2,6-dimethoxy-4-(4-(2-methyl-3-(4,5,6,7-tetrahydrothiazolo[5,4-c]pyridin-2-yl)phenyl)indolin-1-yl)benzyl)amino)methyl)pyrrolidin-2-one], for which the pIC50 in experiment [1] is 7.00 to 8.00; against PD-1/PD-L1 interaction, under 5.70.
The like results for `COc1cc(-n2ncc3c(-c4cccc(-c5nc6cc(CN7CC[C@@H](C(=O)O)C7)cc(C#N)c6o5)c4C)cccc32)cc(OC)c1CN1CC[C@@H](O)C1` [Example 154, (R)-1-((7-cyano-2-(3-(1-(4-(((R)-3-hydroxypyrrolidin-1-yl)methyl)-3,5-dimethoxyphenyl)-1H-indazol-4-yl)-2-methylphenyl)benzo[d]oxazol-5-yl)methyl)pyrrolidine-3-carboxylic acid] were, in that order, over 9.00 and over 6.70.
